These results are taken from patent US20180250260A1, “METHODS FOR TREATING CANCER” (BOSTON BIOMEDICAL, INC., priority 2015, published 2018).

SMILES strings stand for the structures.

Assay [1] relates to p-Stat3. Briefly: Cancer stemness biomarker immunofluorescence in cancer xenograft tumors: p-Stat3. It counts as in vivo, mouse xenograft. The note with it: alone; cancer xenograft tumor model, FIG. 6. As for the experimental part:
(§1) The effects of 2-acetylnaphtho[2,3-b]furan-4,9-dione, a compound of formula (I), on cancer stem cell markers was examined in cancer xenograft models with and without irinotecan. Human cancer cells were subcutaneously implanted into the right flank of 5-7 weeks old female athymic nude mice. When tumor size reached 200 mm^3, animals were treated with 2-acetylnaphtho[2,3-b]furan-4,9-dione, irinotecan, or a combination of 2-acetylnaphtho[2,3-b]furan-4,9-dione and irinotecan. Tumors were harvested after first dosing.
(§2) The harvested tissues were fixed in 3.7% neutral buffered formaldehyde at 4° C. for overnight. The paraffin was embedded, cut to about 5 microns, and affixed onto positively-charged slides. After being baked and de-paraffinized, the slides with tumor or control tissues were incubated in 10 mM Sodium Citrate (pH 6.0) for 10 minutes. After antigen retrieval, slides were probed with primary antibodies P-STAT3 (rabbit, Cell Signaling, 1:100), 13-Catenine (mouse, Santa Cruz, 1:400) at 4° C. overnight, and then Alexa Fluor fluorescent dyes-conjugated secondary antibodies (1:500, Invitrogen). After mounting, the slides with ProLong mounting medium with DAPI (Invitrogen) were examined under a Zeiss fluorescence microscope with 20× objective, and analyzed with Zen software.

The test system of assay [2] is β-catenin. Briefly: Cancer stemness biomarker immunofluorescence in cancer xenograft tumors: β-catenin. It counts as in vivo. As to conditions: alone; cancer xenograft tumor model, FIG. 6. As for the experimental part:
as §1, §2

On to `CCc1c2c(nc3ccc(OC(=O)N4CCC(N5CCCCC5)CC4)cc13)-c1cc3c(c(=O)n1C2)COC(=O)[C@]3(O)CC` [irinotecan, reference compound], for which, in assay [1], the “staining for stem cell marker p-Stat3” value was “enhanced staining”. In addition, the “staining for stem cell marker β-catenin” value in assay [2] is on record as “enhanced staining”.
